Reference: US20250129121A1, “POLYPEPTIDE, PRODUCT INCLUDING POLYPEPTIDE FOR INHIBITING FUSOBACTERIUM NUCLEATUM, OR DRUG FOR PREVENTING COLORECTAL CANCER” (priority 2022, published 2025)
Converted amounts (≈) assume the structure as drawn. Where a SMILES comes first, the peptide text is derived from it.

Tests used:
[1] = system: Bifidobacterium longum 6194; format: cell-based; details: 20 h
Procedure: (§1) A. Each polypeptide was prepared into a specified stock solution for later use. Minimum inhibitory concentrations (MICs) of the polypeptides P1 to P12 were determined by a broth microdilution method. With 0.01% acetic acid (including 0.2% of bovine serum albumin (BSA)) as a diluent, a series of gradient antimicrobial peptide solutions were prepared by a two-fold dilution method.
(§2) B. 100 μL of each polypeptide stock solution was taken and added to a 96-well cell culture plate, and then each strain solution to be tested (about 10^5/mL) was added in an equal volume to each well. A positive control (including a strain solution, but not including a polypeptide) and a negative control (including neither a strain solution nor a polypeptide). Strains to be tested include Escherichia coli Nissile 1917, Vibrio cholerae H1, Pseudomonas aeruginosa PAO1, F. nucleatum 25586, F. nucleatum 10953, Bifidobacterium uniformis 6597, Lactobacillus acidophilus 6075, Bifidobacterium longum 6194Lactobacillus rhamnosus 6141, and Streptococcus agalactiae H94.
(§3) C. The cell culture plate was incubated at a constant temperature of 37° C. for 20 h, and MIC was recorded when the turbidity was not observed by naked eyes at a bottom of a well. The strains all were purchased from the market.

[2] = system: Bifidobacterium uniformis 6597; format: cell-based; details: 20 h
Procedure: as §1, §2, §3

[3] = system: Escherichia coli Nissile 1917; format: cell-based; details: Nissile 1917, 20 h
Procedure: as §1, §2, §3

[4] = system: Lactobacillus acidophilus 6075; format: cell-based; details: 20 h
Procedure: as §1, §2, §3

[5] = system: Lactobacillus rhamnosus 6141; format: cell-based; details: 20 h
Procedure: as §1, §2, §3

[6] = system: Pseudomonas aeruginosa PAO1; format: cell-based; details: PAO1, 20 h
Procedure: as §1, §2, §3

[7] = system: Streptococcus agalactiae H94; format: cell-based; details: H94, 20 h
Procedure: as §1, §2, §3

[8] = system: F. nucleatum 10953; format: cell-based, Fusobacterium nucleatum; details: 10953, 20 h
Procedure: as §1, §2, §3

[9] = system: F. nucleatum 25586; format: cell-based, Fusobacterium nucleatum; details: 25586, 20 h
Procedure: as §1, §2, §3

MIC Bifidobacterium longum 6194 [1] [µM]	MIC Bifidobacteriu muniformis 6597 [2] [µM]	MIC Escherichia coli nissile1917 [3] [µM]	MIC Lactobacillus acidophilus 6075 [4] [µM]	MIC Lactobacterium rhamnosus 6141 [5] [µM]	MIC Pseudomonas aeruginosa PAO1 [6] [µM]	MIC Streptococcus agalactiae H94 [7] [µM]	MIC Fusobacterium nucleatum 10953 [8] [µM]	MIC Fusobacterium nucleatum 25586 [9] [µM]	SMILES
>64	>64	>64	>64	>64	>64	>64	>64	>64	N=C(N)NCCC[C@H](NC(=O)CNC(=O)[C@@H]1CCCN1C(=O)[C@H](CCCNC(=N)N)NC(=O)[C@H](Cc1c[nH]c2ccccc12)NC(=O)[C@H](CC(=O)O)NC(=O)[C@@H](N)Cc1c[nH]c2ccccc12)C(=O)N[C@@H](Cc1c[nH]c2ccccc12)C(=O)N[C@@H](CC(=O)O)C(=O)N[C@@H](Cc1c[nH]c2ccccc12)C(=O)O [P4, WDWRPGRWDW] (H-WDWRPGRWDW-OH; N-terminus assumed)
>64	>64	64 (≈ 176 µg/mL)	>64	>64	>64	>64	>64	>64	N=C(N)NCCC[C@H](NC(=O)CNC(=O)[C@@H]1CCCN1C(=O)[C@H](CCCNC(=N)N)NC(=O)[C@H](Cc1c[nH]c2ccccc12)NC(=O)[C@H](CC(=O)O)NC(=O)[C@H](Cc1c[nH]c2ccccc12)NC(=O)[C@H](CCCNC(=N)N)NC(=O)[C@H](Cc1c[nH]c2ccccc12)NC(=O)[C@H](CC(=O)O)NC(=O)[C@@H](N)Cc1c[nH]c2ccccc12)C(=O)N[C@@H](Cc1c[nH]c2ccccc12)C(=O)N[C@@H](CC(=O)O)C(=O)N[C@@H](Cc1c[nH]c2ccccc12)C(=O)N[C@@H](CCCNC(=N)N)C(=O)N[C@@H](Cc1c[nH]c2ccccc12)C(=O)N[C@@H](CC(=O)O)C(=O)N[C@@H](Cc1c[nH]c2ccccc12)C(=O)O [P5, WDWRWDWRPGRWDWRWDW] (H-WDWRWDWRPGRWDWRWDW-OH; N-terminus assumed)
>64	>64	64 (≈ 186 µg/mL)	>64	>64	>64	>64	64 (≈ 186 µg/mL)	64 (≈ 186 µg/mL)	N=C(N)NCCC[C@H](NC(=O)CNC(=O)[C@@H]1CCCN1C(=O)[C@H](CCCNC(=N)N)NC(=O)[C@H](Cc1c[nH]c2ccccc12)NC(=O)[C@H](CC(=O)O)NC(=O)[C@H](Cc1c[nH]c2ccccc12)NC(=O)[C@H](Cc1c[nH]c2ccccc12)NC(=O)[C@H](CC(=O)O)NC(=O)[C@H](Cc1c[nH]c2ccccc12)NC(=O)[C@H](CCCNC(=N)N)NC(=O)CNC(=O)[C@@H]1CCCN1C(=O)[C@H](CCCNC(=N)N)NC(=O)[C@H](Cc1c[nH]c2ccccc12)NC(=O)[C@H](CC(=O)O)NC(=O)[C@@H](N)Cc1c[nH]c2ccccc12)C(=O)N[C@@H](Cc1c[nH]c2ccccc12)C(=O)N[C@@H](CC(=O)O)C(=O)N[C@@H](Cc1c[nH]c2ccccc12)C(=O)O [P6] (H-WDWRPGRWDWWDWRPGRWDW-OH; N-terminus assumed)
>64	>64	64 (≈ 96.2 µg/mL)	32 (≈ 48.1 µg/mL)	64 (≈ 96.2 µg/mL)	>64	>64	8 (≈ 12 µg/mL)	64 (≈ 96.2 µg/mL)	N=C(N)NCCC[C@H](NC(=O)CNC(=O)[C@@H]1CCCN1C(=O)[C@H](CCCNC(=N)N)NC(=O)[C@H](Cc1c[nH]c2ccccc12)NC(=O)[C@H](Cc1c[nH]cn1)NC(=O)[C@@H](N)Cc1c[nH]c2ccccc12)C(=O)N[C@@H](Cc1c[nH]c2ccccc12)C(=O)N[C@@H](Cc1c[nH]cn1)C(=O)N[C@@H](Cc1c[nH]c2ccccc12)C(=O)O [P7, WHWRPGRWHW] (H-WHWRPGRWHW-OH; N-terminus assumed)

Second part, the molecule before the results:

SMILES	MIC Bifidobacterium longum 6194 [1] [µM]	MIC Bifidobacteriu muniformis 6597 [2] [µM]	MIC Escherichia coli nissile1917 [3] [µM]	MIC Lactobacillus acidophilus 6075 [4] [µM]	MIC Lactobacterium rhamnosus 6141 [5] [µM]	MIC Pseudomonas aeruginosa PAO1 [6] [µM]	MIC Streptococcus agalactiae H94 [7] [µM]	MIC Fusobacterium nucleatum 10953 [8] [µM]	MIC Fusobacterium nucleatum 25586 [9] [µM]
N=C(N)NCCC[C@H](NC(=O)CNC(=O)[C@@H]1CCCN1C(=O)[C@H](CCCNC(=N)N)NC(=O)[C@H](Cc1c[nH]c2ccccc12)NC(=O)[C@H](CCC(=O)O)NC(=O)[C@@H](N)Cc1c[nH]c2ccccc12)C(=O)N[C@@H](Cc1c[nH]c2ccccc12)C(=O)N[C@@H](CCC(=O)O)C(=O)N[C@@H](Cc1c[nH]c2ccccc12)C(=O)O [P1, WEWRPGRWEW] (H-WEWRPGRWEW-OH; N-terminus assumed)	>64	>64	>64	>64	>64	>64	>64	>64	>64
N=C(N)NCCC[C@H](NC(=O)CNC(=O)[C@@H]1CCCN1C(=O)[C@H](CCCNC(=N)N)NC(=O)[C@H](Cc1c[nH]c2ccccc12)NC(=O)[C@H](CCC(=O)O)NC(=O)[C@H](Cc1c[nH]c2ccccc12)NC(=O)[C@H](CCCNC(=N)N)NC(=O)[C@H](Cc1c[nH]c2ccccc12)NC(=O)[C@H](CCC(=O)O)NC(=O)[C@@H](N)Cc1c[nH]c2ccccc12)C(=O)N[C@@H](Cc1c[nH]c2ccccc12)C(=O)N[C@@H](CCC(=O)O)C(=O)N[C@@H](Cc1c[nH]c2ccccc12)C(=O)N[C@@H](CCCNC(=N)N)C(=O)N[C@@H](Cc1c[nH]c2ccccc12)C(=O)N[C@@H](CCC(=O)O)C(=O)N[C@@H](Cc1c[nH]c2ccccc12)C(=O)O [P2, WEWRWEWRPGRWEWRWEW] (H-WEWRWEWRPGRWEWRWEW-OH; N-terminus assumed)	>64	>64	>64	>64	>64	>64	>64	>64	>64
N=C(N)NCCC[C@H](NC(=O)CNC(=O)[C@@H]1CCCN1C(=O)[C@H](CCCNC(=N)N)NC(=O)[C@H](Cc1c[nH]c2ccccc12)NC(=O)[C@H](CCC(=O)O)NC(=O)[C@H](Cc1c[nH]c2ccccc12)NC(=O)[C@H](Cc1c[nH]c2ccccc12)NC(=O)[C@H](CCC(=O)O)NC(=O)[C@H](Cc1c[nH]c2ccccc12)NC(=O)[C@H](CCCNC(=N)N)NC(=O)CNC(=O)[C@@H]1CCCN1C(=O)[C@H](CCCNC(=N)N)NC(=O)[C@H](Cc1c[nH]c2ccccc12)NC(=O)[C@H](CCC(=O)O)NC(=O)[C@@H](N)Cc1c[nH]c2ccccc12)C(=O)N[C@@H](Cc1c[nH]c2ccccc12)C(=O)N[C@@H](CCC(=O)O)C(=O)N[C@@H](Cc1c[nH]c2ccccc12)C(=O)O [P3] (H-WEWRPGRWEWWEWRPGRWEW-OH; N-terminus assumed)	>64	>64	>64	>64	>64	>64	>64	>64	>64
